US11680047B2, “Enhanced erythropoiesis and iron metabolism” (FibroGen, Inc., priority 2003, dated 2023)

Experiments:
E-selectin [1] = assay: Cell surface E-selectin (cell-based ELISA) in HUVEC pretreated with compound, then cytokines; set-up: species or system human; conditions: HUVEC pretreated 24 hours
Description: HUVEC were treated with vehicle control or various concentrations of compound B or compound C for 24 hours. Cells were washed and then stimulated with either 1 ng/ml TNF-α, 1 ng/ml IL-1β, or a combination of 1 ng/ml each of TNF-α, IL-1β, and IFN-γ for 4 hours. Cell surface expression of E-selectin was measured by cell-based ELISA.

VCAM-1 [2] = assay: IL-1β induced VCAM-1 expression in HUVEC; format: cell-based, human; conditions: IL-1β 1 ng/ml, 1 day
Description: (§1) To investigate the effect of HIF prolyl hydroxylase inhibition on IL-1β induced VCAM-1 expression, HUVEC (human umbilical vein endothelial cells) were stimulated with IL-1β in the absence or presence of various concentrations of compound B or compound C for 1 day. VCAM expression was then measured.

E-selectin [3] = assay: IL-1β induced E-selectin expression in HUVEC; format: cell-based, human; conditions: 1 ng/ml IL-1β, 1 day
Description: To investigate the effect of HIF prolyl hydroxylase inhibition on IL-1β induced E-selectin expression, HUVECs were stimulated with 1 ng/ml IL-1β in the absence or presence of various concentrations of compound B or compound C for 1 day. E-selectin expression was then measured.

VCAM-1 [4] = assay: TNF-α induced VCAM-1 expression in HUVEC; format: cell-based, human; conditions: TNF-α 1 ng/ml, 1 day
Excerpt: as §1, with “Endothelial cell adhesiveness for lymphocytes occurs, in part, by endothelial cell expression of vascular cell adhesion molecule (VCAM)-1. VCAM-1 expression in endothelial cells is induced by various inflammatory cytokines, such as TNF-α. To” for “To”, “TNF-α” for “IL-1β”
(§2) Endothelial E-selectin belongs to the selectin family of cellular adhesion molecules mediating the initial attachment of leukocytes to vascular endothelial cells in inflammatory events. IL-1β, TNF-α, and lipopolysaccharides each induce the expression of E-selectin. (See, e.g., Bevilacqua et al. (1987) Proc Natl Acad Sci USA 84:9238-9242 and Bevilacqua and van Furth (1993) J Leukoc Biol 54:363-378.) To investigate the effect of HIF prolyl hydroxylase inhibition on TNF-α induced E-selectin expression, HUVECs were stimulated with 1 ng/ml TNF-α in the absence or presence of various concentrations of compound B or compound C for 1 day. E-selectin and VCAM expression were then measured.

E-selectin [5] = assay: TNF-α induced E-selectin expression in HUVEC; format: cell-based, human; conditions: 1 ng/ml TNF-α, various concentrations, 1 day
Excerpt: as §2

NRAMP2 = NRAMP2 mRNA in small intestine of mice after IV administration (microarray); format: in vivo, mouse; conditions: 60 mg/kg IV, 4 hours
Description: In another experiment, mRNA was isolated from small intestine harvested 4 hours following IV administration of 60 mg/kg compound A, compound B, and compound C to mice. Probes were prepared from each of two animals from 5 treatment groups, and hybridized to Affymetrix mouse MOE430Aplus2 microarrays (one animal per array). Statistical comparisons of data obtained from arrays from treated versus non-treated animals was performed. […] Expression levels are shown as fold-induction over control, untreated animals for each expressed gene.

Ceruloplasmin (CP) = assay: Microarray gene expression in Hep3B cells: ceruloplasmin; format: cell-based, human; conditions: 2 μM, 6 hr
Description: Hep3B cells (ATCC No. HB-8064) were grown in DMEM containing 8% fetal bovine serum. Hep3B cells were seeded into 6-well culture dishes at ˜500,000 cells per well. After 8 hours, the media was changed to DMEM containing 0.5% fetal bovine serum and the cells were incubated for an additional 16 hours. Compound B or compound D was added to the cells (2 μM final concentration) and the cells were incubated for various times. Control cells (no compound treatment, addition of DMSO alone) were harvested at 0, 6 and 48 hours. Harvested cells were assessed for cell viability (GUAVA), or added to RNA extraction buffer (RNeasy, Qiagen) and stored at −20° C. for subsequent RNA purification. Replicate microarrays were generated using RNA isolated from replicate experiments conducted on different days. Total RNA was isolated from cells using the RNeasy kit (Qiagen).
RNA was precipitated in 0.3 M sodium acetate (pH 5.2), 50 ng/ml glycogen, and 2.5 volumes of ethanol for one hour at −20° C. Samples were centrifuged and pellets were washed with cold 80% ethanol, dried, and resuspend in water. Double stranded cDNA was synthesized using a T7-(dT)24 first strand primer (Affymetrix, Inc., Santa Clara Calif.) and the SUPERSCRIPT CHOICE system (Invitrogen) according to the manufacturer's instructions. The final cDNA was extracted with an equal volume of 25:24:1 phenol:chloroform:isoamyl alcohol using a PHASE LOCK GEL insert (Brinkman, Inc., Westbury N.Y.). The aqueous phase was collected and cDNA was precipitated using 0.5 volumes of 7.5 M ammonium acetate and 2.5 volumes of ethanol. Alternatively, cDNA was purified using the GENECHIP sample cleanup module (Affymetrix) according to the manufacturer's instructions.
Biotin-labeled cRNA was synthesized from the cDNA in an in vitro […] (IVT) reaction using a BIOARRAY HighYield RNA transcript labeling kit (Enzo Diagnostics, Inc., Farmingdale N.Y.) according to the manufacturer's instructions. Final labeled product was purified and fragmented using the GENECHIP sample cleanup module (Affymetrix) according to the manufacturer's instructions.
Hybridization cocktail was prepared by bringing […] probe to […] in 1× hybridization buffer (100 mM MES, 1 M [Na^+], 20 mM EDTA, 0.01% Tween 20), 100 µg/ml herring sperm DNA, 500 µg/ml acetylated BSA, 0.03 nM contol oligo B2 (Affymetrix), and 1×GENECHIP eukaryotic hybridization control (Affymetrix). The cocktail was sequentially incubated at 99° C. for 5 minutes and 45° C. for 5 minutes, and then centrifuged for 5 minutes. The Human Genome U133A array (Affymetrix) was brought to room temperature and then prehybridized with 1× hybridization buffer at 45° C. for 10 minutes with rotation. The buffer was then replaced with […] hybridization cocktail and the array was hybridized for 16 hours at 45° C. at 60 rpm with counter balance. Following hybridization, arrays were washed once with 6×SSPE, 0.1% Tween 20, and then washed and stained using R-phycoerythrin-conjugated streptavidin (Molecular Probes, Eugene Oreg.), goat anti-streptavidin antibody (Vector Laboratories, Burlingame Calif.), and a GENECHIP Fluidics Station 400 instrument (Affymetrix) according to the manufacturer's micro_1v1 protocol (Affymetrix). Arrays were analyzed using a GENEARRAY scanner (Affymetrix) and Microarray Suite software (Affymetrix).
The Human Genome U133A array (Affymetrix) represents all sequences in the Human Unigene database build 133 (National Center for Biotechnology Information, Bethesda Md.), including approximately 14,500 well-characterized human genes.
RNA quality was monitored by capillary electrophoresis (Agilent Bioanalyzer). Hybridization cocktails were prepared as described (Affymetrix), and hybridized to Affymetrix human U133A arrays containing 22,283 probe sets. Array performance was analyzed with Affymetrix MicroArray Suite (MAS) software and individual probe sets were assigned “present”, “marginal, and “absent” calls according to software defaults. […]

[6] = system: erythropoietin-resistant anemia; conditions: Salvarani et al. (1996); Goch et al. (1995); cited from earlier work
EPO production = assay: Secreted EPO (ELISA) in Hep3B cells treated with IL-6; format: cell-based; conditions: 10 ng/ml IL-6, absence of compound
Description: Secreted EPO levels were determined using a commercially available ELISA kit (R&D Systems, catalog no. DEP00). […] As shown in FIGS. 27A and 27B, Hep3B cells treated with IL-6 increased EPO expression slightly above that in non-treated cells. Specifically, EPO levels in control cells was approximately 20 mIU/ml, while that in cells treated with 10 ng/ml IL-6 was approximately 50 mIU/ml.

With `O=C(O)CNC(=O)c1ncc2cc(Sc3ccccc3)ccc2c1O` [C, [(4-Hydroxy-7-phenylsulfanyl-isoquinoline-3-carbonyl)-amino]-acetic acid] the “induction of cell surface E-selectin expression” value (E-selectin [1]; then 1 ng/ml TNF-α or 1 ng/ml IL-1β for 4 hours) was “inhibited the induction of cell surface E-selectin expression”, the “cell surface E-selectin expression” value (E-selectin [1]; then TNF-α, IL-1β and IFN-γ, 1 ng/ml each, 4 hours) was “decreased E-selectin expression” and the “inhibition of IL-1β induced VCAM-1 expression” value (VCAM-1 [2]) was “does-dependent inhibition of IL-1β induced VCAM-1 expression”. For the same compound, the “inhibition of IL-1β induced E-selectin expression” value (E-selectin [3]) was “dose-dependent inhibition of IL-1β induced E-selectin expression”, the “inhibition of TNF-α induced VCAM-1 expression” value (VCAM-1 [4]) was “does-dependent inhibition of TNF-α induced VCAM-1 expression” and the “inhibition of TNF-α induced E-selectin expression” value (E-selectin [5]) was “dose-dependent inhibition of TNF-α induced VCAM and E-selectin expression”. The “NRAMP2 mRNA expression in small intestine” value (NRAMP2) was “increasing expression of NRAMP2 in intestine”.
With `COc1ccc(CCN(CCC(=O)NO)S(=O)(=O)c2ccc(NC(=O)N(Cc3ccccc3)Cc3ccccc3)cc2)cc1` [Compound D, 3-{[4-(3,3-Dibenzyl-ureido)-benzenesulfonyl]-[2-(4-methoxy-phenyl)-ethyl]-amino}-N-hydroxy-propionamide] the “Ceruloplasmin (CP) fold-increase in mRNA levels above control, first data point” value (Ceruloplasmin (CP)) was 2.06 fold and the “Ceruloplasmin (CP) fold-increase in mRNA levels above control, second data point” value (Ceruloplasmin (CP)) was 2.387 fold.
In the case of `CC(=O)N(O)CCCCCNC(=O)CCC(=O)N(O)CCCCCNC(=O)CCC(=O)N(O)CCCCCN` [desferrioxamine], the “efficacy in erythropoietin-resistant anemia, e.g., anemia of chronic disease” value [6] is listed as “some efficacy”.
With “IL-6: cytokine added to Hep3B cells, alone or with compound A or compound B [reference compound]” the EPO levels (EPO production) was “approximately 50 mIU/ml”.
